Measurements taken from ChEMBL document CHEMBL1201862, “PubChem BioAssay data set” (2004).
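Test compounds were applied to cells in 96-well plates for 48 hours at 5 doses. GI50 is the concentration that inhibits growth by half.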 Calls of active or inactive are those of the source. Rule as the data show it: active = GI50 up to about 1.1 µM and inactive = higher.

How the values were obtained:
Assay in all cases: growth of human tumour cells (NCI), 48 h
CAKI-1 = system: CAKI-1
HOP-62 = system: HOP-62
HT-29 = system: HT-29
KM-20L2 = system: KM-20L2
M14 = system: M14
M19-MEL = system: M19-MEL
NCI-H522 = system: NCI-H522
RXF 393 = system: RXF 393
SN12C = system: SN12C
SNB-78 = system: SNB-78
TK-10 = system: TK-10
NCI-H23 = system: NCI-H23
SK-MEL-28 = system: SK-MEL-28
XF498 = system: XF498
MDA-MB-435 = system: MDA-MB-435
MDA-N = system: MDA-N
NCI/ADR-RES = system: NCI/ADR-RES

SMILES | GI50 (CAKI-1) | GI50 (HOP-62) | GI50 (HT-29) | GI50 (KM-20L2) | GI50 (M14) | GI50 (M19-MEL) | GI50 (NCI-H522) | GI50 (RXF 393) | GI50 (SN12C) | GI50 (SNB-78) | GI50 (TK-10) | GI50 (NCI-H23) | GI50 (SK-MEL-28) | GI50 (XF498) | GI50 (MDA-MB-435) | GI50 (MDA-N) | GI50 (NCI/ADR-RES)
COC(=O)C(=O)C(C(=O)C(=O)Nc1ccc([N+](=O)[O-])cc1C#N)c1nc2ccc([N+](=O)[O-])cc2nc1O (centres undefined) | 94.6 µM (inactive) | 94.2 µM (inactive) | > 100 µM (inactive) | > 100 µM (inactive) | > 100 µM (inactive) | > 100 µM (inactive) | > 100 µM (inactive) | > 100 µM (inactive) | > 100 µM (inactive) | > 100 µM (inactive) | > 100 µM (inactive) | – | – | – | – | – | –
c1cc2nnsc2s1 | > 100 µM (inactive) | > 100 µM (inactive) | > 100 µM (inactive) | > 100 µM (inactive) | > 100 µM (inactive) | > 100 µM (inactive) | > 100 µM (inactive) | – | > 100 µM (inactive) | > 100 µM (inactive) | > 100 µM (inactive) | > 100 µM (inactive) | > 100 µM (inactive) | > 100 µM (inactive) | – | – | –
CC1=C(C(=O)CC(=O)C(=O)Nc2ccccc2C(F)(F)F)Sc2ccccc2N1 | 53.2 µM (inactive) | 33.9 µM (inactive) | > 100 µM (inactive) | > 100 µM (inactive) | 52.4 µM (inactive) | – | 24.5 µM (inactive) | 15.8 µM (inactive) | 56.4 µM (inactive) | 47.3 µM (inactive) | > 100 µM (inactive) | 22.1 µM (inactive) | – | 31.5 µM (inactive) | – | – | –
CC12C/C(=C\c3ccccc3)C(=O)C3C1CCCC32 | > 100 µM (inactive) | > 100 µM (inactive) | 31.6 µM (inactive) | 63.1 µM (inactive) | > 100 µM (inactive) | 58.6 µM (inactive) | 26.5 µM (inactive) | – | > 100 µM (inactive) | – | > 100 µM (inactive) | > 100 µM (inactive) | > 100 µM (inactive) | > 100 µM (inactive) | – | – | –
O=C(CC1(O)C(=O)Nc2c(Cl)cc(Cl)cc21)c1cccc2ccccc12 (centres undefined) | 11.8 µM (inactive) | 16.5 µM (inactive) | 19.6 µM (inactive) | 18.9 µM (inactive) | 16.7 µM (inactive) | – | 14.3 µM (inactive) | 20.6 µM (inactive) | 18.4 µM (inactive) | 26.7 µM (inactive) | 14.1 µM (inactive) | 16.9 µM (inactive) | 18.7 µM (inactive) | 20.4 µM (inactive) | – | – | –
COc1ccc(CC2c3c(cc(OC)c(OC)c3OC)CCN2C)cc1OC (centres undefined) | > 100 µM (inactive) | > 100 µM (inactive) | > 100 µM (inactive) | > 100 µM (inactive) | > 100 µM (inactive) | – | > 100 µM (inactive) | – | > 100 µM (inactive) | 60 µM (inactive) | > 100 µM (inactive) | > 100 µM (inactive) | > 100 µM (inactive) | > 100 µM (inactive) | – | – | –
CS(=O)(=O)N(CCC#N)c1ccc(/C=N/NC(=O)CC(=O)Nc2cccc(Cl)c2)cc1 | > 100 µM (inactive) | > 100 µM (inactive) | > 100 µM (inactive) | > 100 µM (inactive) | > 100 µM (inactive) | > 100 µM (inactive) | > 100 µM (inactive) | > 100 µM (inactive) | > 100 µM (inactive) | > 100 µM (inactive) | > 100 µM (inactive) | > 100 µM (inactive) | > 100 µM (inactive) | – | – | – | –
COc1ccc(C)cc(O)c1=O | 28.2 µM (inactive) | 54.6 µM (inactive) | 44 µM (inactive) | 40.2 µM (inactive) | 21.2 µM (inactive) | 32.3 µM (inactive) | 30.4 µM (inactive) | 39.7 µM (inactive) | 38.5 µM (inactive) | > 100 µM (inactive) | > 100 µM (inactive) | 40.1 µM (inactive) | 57.4 µM (inactive) | – | – | – | –
O=C(C=C1SCCS1)/C=C\c1ccc(Cl)cc1 | > 100 µM (inactive) | > 100 µM (inactive) | 41.4 µM (inactive) | – | > 100 µM (inactive) | > 100 µM (inactive) | > 100 µM (inactive) | – | > 100 µM (inactive) | > 100 µM (inactive) | 97.5 µM (inactive) | > 100 µM (inactive) | > 100 µM (inactive) | 73.8 µM (inactive) | – | – | –
Cc1cc(-c2ccccc2)nc(Nc2nc3ccccc3o2)n1 | > 100 µM (inactive) | > 100 µM (inactive) | > 100 µM (inactive) | > 100 µM (inactive) | > 100 µM (inactive) | > 100 µM (inactive) | > 100 µM (inactive) | – | > 100 µM (inactive) | > 100 µM (inactive) | > 100 µM (inactive) | > 100 µM (inactive) | > 100 µM (inactive) | > 100 µM (inactive) | – | – | –
CC(=O)O[C@H]1CCC2[C@@H]3CC[C@]4(C)CC(=O)C=C[C@]4(C)C3CC[C@@]21C (some centres undefined) | 83.4 µM (inactive) | 50.6 µM (inactive) | 18.1 µM (inactive) | 19.4 µM (inactive) | 19.2 µM (inactive) | 18.8 µM (inactive) | 24.6 µM (inactive) | 24.2 µM (inactive) | 24.2 µM (inactive) | 14.9 µM (inactive) | 54.7 µM (inactive) | 21.9 µM (inactive) | 18.5 µM (inactive) | – | 40.6 µM (inactive) | 26.4 µM (inactive) | 22 µM (inactive)
Cn1c(=O)c2ccc(-c3ccc(Br)cc3)nc2n(C)c1=O | – | > 100 µM (inactive) | > 100 µM (inactive) | – | > 100 µM (inactive) | > 100 µM (inactive) | > 100 µM (inactive) | – | – | 85.3 µM (inactive) | 49.5 µM (inactive) | 51.2 µM (inactive) | > 100 µM (inactive) | > 100 µM (inactive) | – | – | –
COc1cc([C@@H]2c3cc4c(cc3[C@@H](NCc3ccccc3F)C3COC(=O)[C@@H]32)OCO4)cc(OC)c1O (some centres undefined) | 1.91 µM (inactive) | 1.93 µM (inactive) | 4.78 µM (inactive) | 2.71 µM (inactive) | 3.01 µM (inactive) | 3.47 µM (inactive) | 0.361 µM (active) | 5.18 µM (inactive) | 2.62 µM (inactive) | 25.8 µM (inactive) | 27.6 µM (inactive) | 2.29 µM (inactive) | 12.2 µM (inactive) | – | – | – | –
CCCCCCCCCCCCCCCCOP(=O)(O)Oc1ccc(/C=C\c2ccc(OP(=O)(O)OCCCCCCCCCCCCCCCC)cc2)cc1 | > 100 µM (inactive) | 38.1 µM (inactive) | 62.7 µM (inactive) | 67.3 µM (inactive) | 45.6 µM (inactive) | 38.7 µM (inactive) | 29.6 µM (inactive) | 2.47 µM (inactive) | > 100 µM (inactive) | 20.1 µM (inactive) | 25.1 µM (inactive) | 23.5 µM (inactive) | > 100 µM (inactive) | – | – | – | –
[N-]=[N+]=NC(CCl)c1cn([C@H]2C[C@H](O)[C@@H](CO)O2)c(=O)[nH]c1=O (some centres undefined) | > 100 µM (inactive) | > 100 µM (inactive) | > 100 µM (inactive) | > 100 µM (inactive) | > 100 µM (inactive) | > 100 µM (inactive) | > 100 µM (inactive) | > 100 µM (inactive) | > 100 µM (inactive) | > 100 µM (inactive) | > 100 µM (inactive) | > 100 µM (inactive) | > 100 µM (inactive) | – | – | – | –
